Values joined by “and” are separate entries in the source; they are usually repeats but may differ in a detail not shown here. Identical values can stand only once.
System: 898857-211-R-J1-PDC complex spheroids, growth % test/control
Experiment: Anticancer human tumor 898857-211-R-J1-PDC patient-derived melanoma cell line growth inhibition [RAS]
Details: for viability, T/C: stronger effect = lower value
In short: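 Multi-cell-type spheroids: tumor cells plus HUVEC endothelial cells and mesenchymal stem cells. RAS-pathway inhibitors were combined with targeted agents, each dosed in half-log steps down from clinical Cmax, or from 10 microM when Cmax was unknown.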
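Also: spheroids exposed to compound for seven days before readout.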
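For viability, T/C in this document: 100% = DMSO vehicle control wells.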

`CC1(O)CCCC1n1c(=O)c(C(F)F)cc2cnc(NC3CCN(S(C)(=O)=O)CC3)nc21` (stereo unspecified) + C#Cc1c(F)ccc2cc(O)cc(-c3ncc4c(N5CC6CCC(C5)N6)nc(OCC56CCCN5CC(F)C6)nc4c3F)c12 was tested, and the IC50 (curve of first compound, second compound 0.0316 µM) was 584 nM, the IC50 (curve of first compound, second compound 0.1 µM) was 129 nM and the IC50 (curve of first compound, second compound 0.316 µM) was 334 nM. For the same compound, the IC50 (curve of first compound, second compound 1 µM) was 529 nM, the IC50 (curve of first compound, second compound 3.16 µM) was 321 nM and the IC50 (curve of first compound, second compound 10 µM) was less than 31.6 nM. It also gave a viability, T/C (second compound 0.0316 µM, first compound 0.0316 µM) of 66.1%, a viability, T/C (second compound 0.0316 µM, first compound 0.1 µM) of 53.6% and a viability, T/C (second compound 0.0316 µM, first compound 0.316 µM) of 44.3%. For the same compound, the viability, T/C (second compound 0.0316 µM, first compound 1 µM) was 49.5%, the viability, T/C (second compound 0.0316 µM, first compound 3.16 µM) was 43.1% and the viability, T/C (second compound 0.0316 µM, first compound 10 µM) was 19.9%. The viability, T/C (second compound 0.1 µM, first compound 0.0316 µM) was 95%, the viability, T/C (second compound 0.1 µM, first compound 0.1 µM) was 52.6% and the viability, T/C (second compound 0.1 µM, first compound 0.316 µM) was 38.7%. The viability, T/C (second compound 0.1 µM, first compound 1 µM) was 43.4%, the viability, T/C (second compound 0.1 µM, first compound 3.16 µM) was 48.3% and the viability, T/C (second compound 0.1 µM, first compound 10 µM) was 23.4%. It also gave a viability, T/C (second compound 0.316 µM, first compound 0.0316 µM) of 76.8%, a viability, T/C (second compound 0.316 µM, first compound 0.1 µM) of 50.7% and a viability, T/C (second compound 0.316 µM, first compound 0.316 µM) of 41.8%. The viability, T/C (second compound 0.316 µM, first compound 1 µM) was 49.8%, the viability, T/C (second compound 0.316 µM, first compound 3.16 µM) was 43.5% and the viability, T/C (second compound 0.316 µM, first compound 10 µM) was 19.4%. It also gave a viability, T/C (second compound 1 µM, first compound 0.0316 µM) of 79%, a viability, T/C (second compound 1 µM, first compound 0.1 µM) of 57.6% and a viability, T/C (second compound 1 µM, first compound 0.316 µM) of 46.2%. For the same compound, the viability, T/C (second compound 1 µM, first compound 1 µM) was 46.8%, the viability, T/C (second compound 1 µM, first compound 3.16 µM) was 48.3% and the viability, T/C (second compound 1 µM, first compound 10 µM) was 18.1%. For the same compound, the viability, T/C (second compound 3.16 µM, first compound 0.0316 µM) was 88.7%, the viability, T/C (second compound 3.16 µM, first compound 0.1 µM) was 54.5% and the viability, T/C (second compound 3.16 µM, first compound 0.316 µM) was 49.4%. It also gave a viability, T/C (second compound 3.16 µM, first compound 1 µM) of 41.5%, a viability, T/C (second compound 3.16 µM, first compound 3.16 µM) of 46.7% and a viability, T/C (second compound 3.16 µM, first compound 10 µM) of 16.5%. It also gave a viability, T/C (second compound 10 µM, first compound 0.0316 µM) of 37.5%, a viability, T/C (second compound 10 µM, first compound 0.1 µM) of 24.6% and a viability, T/C (second compound 10 µM, first compound 0.316 µM) of 26.9%. The viability, T/C (second compound 10 µM, first compound 1 µM) was 27.1%, the viability, T/C (second compound 10 µM, first compound 3.16 µM) was 35.8% and the viability, T/C (second compound 10 µM, first compound 10 µM) was 2.8%.
Compound `Nc1ccn(C2OC(CO)C(O)C2(F)F)c(=O)n1` (stereo unspecified) + CCn1c(-c2cccnc2C(C)OC)c2c3cc(ccc31)N1CCOC(CC(NC(=O)C(C(C)C)N(C)C(=O)C3(F)CCN(C(=O)C#CC(C)(C)N(C)C)CC3)C(=O)N3CCCC(N3)C(=O)OCC(C)(C)C2)C1 has an IC50 (curve of first compound, second compound 0.000949 µM) of 6.76 nM, an IC50 (curve of first compound, second compound 0.003 µM) of 7.19 nM and an IC50 (curve of first compound, second compound 0.00949 µM) of 6.7 nM. For the same compound, the IC50 (curve of first compound, second compound 0.03 µM) was 6.02 nM, the IC50 (curve of first compound, second compound 0.0949 µM) was 5.71 nM and the IC50 (curve of first compound, second compound 0.3 µM) was 3.59 nM. For the same compound, the viability, T/C (second compound 0.000949 µM, first compound 0.00316 µM) was 92.8%, the viability, T/C (second compound 0.000949 µM, first compound 0.01 µM) was 27.9% and the viability, T/C (second compound 0.000949 µM, first compound 0.0316 µM) was 5.77%. For the same compound, the viability, T/C (second compound 0.000949 µM, first compound 0.1 µM) was 4.12%, the viability, T/C (second compound 0.000949 µM, first compound 0.316 µM) was 5.73% and the viability, T/C (second compound 0.000949 µM, first compound 1 µM) was 5.16%. For the same compound, the viability, T/C (second compound 0.003 µM, first compound 0.00316 µM) was 100%, the viability, T/C (second compound 0.003 µM, first compound 0.01 µM) was 29.9% and the viability, T/C (second compound 0.003 µM, first compound 0.0316 µM) was 6.22%. It also gave a viability, T/C (second compound 0.003 µM, first compound 0.1 µM) of 5.43%, a viability, T/C (second compound 0.003 µM, first compound 0.316 µM) of 4.28% and a viability, T/C (second compound 0.003 µM, first compound 1 µM) of 4.09%. For the same compound, the viability, T/C (second compound 0.00949 µM, first compound 0.00316 µM) was 95.7%, the viability, T/C (second compound 0.00949 µM, first compound 0.01 µM) was 25.6% and the viability, T/C (second compound 0.00949 µM, first compound 0.0316 µM) was 5.43%. The viability, T/C (second compound 0.00949 µM, first compound 0.1 µM) was 3.4%, the viability, T/C (second compound 0.00949 µM, first compound 0.316 µM) was 4.91% and the viability, T/C (second compound 0.00949 µM, first compound 1 µM) was 4.53%. The viability, T/C (second compound 0.03 µM, first compound 0.00316 µM) was 86.8%, the viability, T/C (second compound 0.03 µM, first compound 0.01 µM) was 21% and the viability, T/C (second compound 0.03 µM, first compound 0.0316 µM) was 4.86%. It also gave a viability, T/C (second compound 0.03 µM, first compound 0.1 µM) of 4.53%, a viability, T/C (second compound 0.03 µM, first compound 0.316 µM) of 4.23% and a viability, T/C (second compound 0.03 µM, first compound 1 µM) of 3.48%. For the same compound, the viability, T/C (second compound 0.0949 µM, first compound 0.00316 µM) was 86%, the viability, T/C (second compound 0.0949 µM, first compound 0.01 µM) was 15.7% and the viability, T/C (second compound 0.0949 µM, first compound 0.0316 µM) was 4.15%. It also gave a viability, T/C (second compound 0.0949 µM, first compound 0.1 µM) of 3.36%, a viability, T/C (second compound 0.0949 µM, first compound 0.316 µM) of 3.77% and a viability, T/C (second compound 0.0949 µM, first compound 1 µM) of 4.54%. It also gave a viability, T/C (second compound 0.3 µM, first compound 0.00316 µM) of 54.6%, a viability, T/C (second compound 0.3 µM, first compound 0.01 µM) of 12.4% and a viability, T/C (second compound 0.3 µM, first compound 0.0316 µM) of 3.88%. The viability, T/C (second compound 0.3 µM, first compound 0.1 µM) was 3.1%, the viability, T/C (second compound 0.3 µM, first compound 0.316 µM) was 3.62% and the viability, T/C (second compound 0.3 µM, first compound 1 µM) was 2.98%.
With `CC1(O)CCCC1n1c(=O)c(C(F)F)cc2cnc(NC3CCN(S(C)(=O)=O)CC3)nc21` (stereo unspecified) the viability, T/C (compound 0.0316 µM) was 93.3% and 97.5% and 83.3%, the viability, T/C (compound 0.1 µM) was 58.4% and 53.8% and 49.8% and the viability, T/C (compound 0.316 µM) was 42.2% (2×) and 39.9%. For the same compound, the viability, T/C (compound 1 µM) was 45.2% and 35.5% and 38.7%, the viability, T/C (compound 3.16 µM) was 41% and 30.3% and 45.7% and the viability, T/C (compound 10 µM) was 21.5% and 15.1% and 17.7%. For the same compound, the IC50 (curve of compound) was 232 nM and 169 nM and 149 nM.

From PubChem BioAssay AID2060882 (Molecular Pharmacology Branch, DTP, NCI, 2025)
